Six compounds from patent US8445680B2, “Tetrahydrothieno pyridines” (Merck Sharp & Dohme Corp., priority 2008, dated 2013) can be followed below.

Structures can show the parent of a compound that is named as a salt. Bounds are passed on as bounds.

The experiment concerns the target T1, FLAG-tagged full length PHD2 (Homo sapiens, UniProt Q9GZT9).
T1 construct: FLAG-tagged full length PHD2; FLAG; made in house; host or cells: baculovirus-infected Sf9 cells
The experiment in a line: PHD2 inhibition assay (time resolved fluorescence, HIF-1α peptide hydroxylation, VHL detection). In kind it is biochemical. The conditions noted are these: 0.2 μM 2-oxoglutarate, 0.5 μM HIF-1α peptide, 2 hr at room temperature; read-out: PHD2 Activity (PHD2 binding activity expressed as IC50). The protocol:
To each well of a 96-well plate was added 1 μL of test compound in DMSO and 20 μl of assay buffer (50 mM Tris pH 7.4/0.01% Tween-20/0.1 mg/ml bovine serum albumin/10 μM ferrous sulfate/1 mM sodium ascorbate/20 μg/ml catalase) containing 0.15 μg/ml FLAG-tagged full length PHD2 expressed in and purified from baculovirus-infected Sf9 cells. After a 30 min preincubation at room temperature, the enzymatic reactions were initiated by the addition of 4 μL of substrates (final concentrations of 0.2 μM 2-oxoglutarate and 0.5 μM HIF-1α peptide biotinyl-[…]).

T1 sequence (Q9GZT9 whole entry): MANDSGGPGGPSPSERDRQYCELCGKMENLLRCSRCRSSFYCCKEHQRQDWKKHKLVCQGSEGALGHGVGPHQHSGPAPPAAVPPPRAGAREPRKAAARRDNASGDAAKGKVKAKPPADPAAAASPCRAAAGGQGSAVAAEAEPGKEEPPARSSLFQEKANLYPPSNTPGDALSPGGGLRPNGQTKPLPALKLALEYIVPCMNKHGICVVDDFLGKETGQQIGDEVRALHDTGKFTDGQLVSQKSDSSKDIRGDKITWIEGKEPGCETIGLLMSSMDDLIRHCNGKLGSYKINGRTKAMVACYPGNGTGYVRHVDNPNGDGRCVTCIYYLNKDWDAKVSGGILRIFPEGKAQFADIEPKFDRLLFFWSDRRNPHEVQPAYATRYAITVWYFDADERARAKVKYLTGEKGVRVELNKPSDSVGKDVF

For `O=C(O)CNC(=O)c1c(O)c2c(n(Cc3ccc(-c4ccc(F)cc4)nc3)c1=O)CSC2` [Example 40, N-[(1-{[6-(4-fluorophenyl)pyridinium-3-yl]methyl}-4-hydroxy-2-oxo-1,2,5,7-tetrahydrothieno[3,4-b]pyridin-3-yl)carbonyl]glycine trifluoroacetate], the IC50 was at most 10 nM.
Next, `N#Cc1ccc(Cn2c3c(c(O)c(C(=O)NCC(=O)O)c2=O)CSC3)cc1` [Example 3, N-{[1-(4-cyanobenzyl)-4-hydroxy-2-oxo-1,2,5,7-tetrahydrothieno[3,4-b]pyridin-3-yl]carbonyl}glycine]: at most 10 nM; `O=C(O)CNC(=O)c1c(O)c2c(n(Cc3ccc(OC(F)(F)F)cc3)c1=O)CS(=O)(=O)C2` [Example 65, N-({4-hydroxy-6,6-dioxido-2-oxo-1-[4-(trifluoromethoxy)benzyl]-1,2,5,7-tetrahydrothieno[3,4-b]pyridin-3-yl}carbonyl)glycine]: at most 10 nM.
Next, `O=C(O)CNC(=O)c1c(O)c2c(n(Cc3cc(F)cc(C(F)(F)F)c3)c1=O)CSC2` [Example 13, N-({l-[3-fluoro-5-(trifluoromethyl)benzyl]-4-hydroxy-2-oxo-1,2,5,7-tetrahydrothieno[3,4-b]pyridin-3-yl]carbonyl)glycine]: 10 to 100 nM; `O=C(O)CNC(=O)c1c(O)c2c(n(Cc3ccc(-n4cccn4)cc3)c1=O)CSC2` [Example 23, N-({4-hydroxy-2-oxo-1-[4-(1H-pyrazol-1-yl)benzyl]-1,2,5,7-tetrahydrothieno[3,4-b]pyridin-3-yl}carbonyl)glycine]: at most 10 nM; `O=C(O)CNC(=O)c1c(O)c2c(n(Cc3noc(-c4ccccc4)n3)c1=O)CSC2` [Example 10, N-({4-hydroxy-2-oxo-1-[(5-phenyl-1,2,4-oxadiazol-3-yl)methyl]-1,2,5,7-tetrahydrothieno[3,4-b]pyridin-3-yl]carbonyl)glycine]: at most 10 nM.
